Laboratory results reported in patent US20230285339A1, “THERAPIES FOR TREATING AML AND USES OF RARA AGONISTS, HYPOMETHYLATING AGENTS, AND BCL-2 INHIBITORS” (Syros Pharmaceuticals, Inc., priority 2020, published 2023).

System: AML samples
Test: Beat AML ex vivo venetoclax sensitivity, proliferation assay on AML patient samples (AUC and IC50)
Type: cell-based, human
Experimental: Venetoclax sensitivity in BeatAML: The BeatAML dataset a/so included ex vivo sensitivity analysis for a panel of 121 inhibitors, including venetoclax, in a proliferation assay on 248 of the AML samples measured by area under the curve (AUC) and IC50. Only some of the patient samples were queried for each inhibitor. Of the samples with at least 40% blasts, 90 were tested for venetoclax ex vivo sensitivity. To define the best possible association of gene expression with venetoclax AUC, we performed a logistic regression model with lasso regularization to predict venetoclax AUC from the expression of all expressed genes using the expression matrix quantile normalized with the TCGA dataset. The R package glmnet was used as described above in the section “Development of monocytic expression signature in TCGA.”
To define samples sensitive to venetoclax, we first identified an IC50 that could separate sensitive samples from insensitive samples, as follows. We consulted two references (Bogenberger et al., Oncotarget 8:107206-107222, 2017) and Ramsey et al. Cancer Discovery 8:1566-1581, 2018) that defined sensitive AML cells in the range of 20-60 nM and resistant AML cells around 1 μM, and we choose 100 nM as a threshold that splits this range. We then mapped 100 nM IC50 values from the BeatAML venetoclax ex vivo assay to AUC, which is a more robust quantitative measure of sensitivity, by selecting the AUC below which all samples have an IC50<100 nM, which led to the AUC threshold of 130. At this threshold, we found 35 AML samples sensitive to venetoclax and 55 AML samples resistant to venetoclax.
In the methods, RARA gene expression in non-APL AML was evaluated in the TCGA and Beat AML RNA-seq datasets. AUC of cell viability curves were used to evaluate ex vivo sensitivity to compounds, including venetoclax, in the Beat AML dataset. A monocytic MES was developed using the expression of monocytic and primitive RNA markers in the TCGA dataset to analyze the monocytic phenotype. The MES used a logistic regression model with lasso regularization to distinguish FAB M4/5 (monocytic) from FAB M0/1/2 (primitive) using 10-fold cross-validation with 85% sensitivity and 80% specificity. The MES was then applied to the RNA-seq datasets from Beat AML and AML blasts from ND unfit AML patients in the ongoing tamibarotene-plus-azacitidine trial (NCT02807558), in which RARA-positive patients were determined by an RT-qPCR-based biomarker clinical trial assay (CTA). The MES, RARA expression, and venetoclax resistance-associated features were compared using Spearman's rho correlation; the association of the MES with the RARA biomarker and with IWG clinical responses in tamibarotene plus Aza treated patients was evaluated.

CC1(C)CCC(CN2CCN(c3ccc(C(=O)NS(=O)(=O)c4ccc(NCC5CCOCC5)c([N+](=O)[O-])c4)c(Oc4cnc5[nH]ccc5c4)c3)CC2)=C(c2ccc(Cl)cc2)C1 [venetoclax]
AML samples resistant (All 90 samples, AUC threshold 130): 55
Percent sensitive (All patients (90 AML samples), AUC threshold 130): 39%
N sensitive (All patients (90 AML samples, at least 40% blasts), sensitive = AUC below threshold of 130 (IC50<100 nM)): 35
Percent sensitive (Monocytic AML patients (MES>0.5), N total 44): 11%
N sensitive (Primitive AML patients (MES<0.5), N total 46): 30
Percent sensitive (Primitive AML patients, N total 46): 65%
Percent sensitive (RARA-high patients, N total 21): 0%
N sensitive (RARA-low patients, N total 69): 35
Percent sensitive (RARA-low patients, N total 69): 51%
